Experimental data from US12246026B2, “Ganaxolone for use in treatment of status epilepticus” (Marinus Pharmaceuticals, Inc., priority 2019, dated 2025).
“Also recorded” adds a separate entry of the source.

Experiments:
subjects with SE = experiment: Phase 2 Study 1042-SE-2001 open-label group, seizure control by EEG; type: in vivo, human
From the text: Example 2 is an ongoing, double-blind, randomized, placebo-controlled Phase 2 study designed to evaluate the safety, tolerability, and efficacy of adjunctive IV GNX in subjects with SE who have failed initial treatment with benzodiazepines and at least one AED. The study consists of a small open-label group to optimize the infusion parameters and provide a preliminary assessment of safety, efficacy, and tolerability of GNX administration, followed by a double-blind group who will be randomized to receive GNX or placebo in a 1:1 ratio. In both the open-label and double-blind groups, the study drug treatment is adjunctive therapy to standard of care, and subjects will receive a study drug bolus dose with a concurrent continuous infusion treatment with the goal of administering a therapeutic dose as quickly as possible to stop the seizures and prevent permanent neurological damage. Specifically, study drug will be added to the standard of care at the time that the first 2nd-line IV AED has failed and the second 2nd-line IV AED is medically indicated during the treatment of SE. Study drug must be administered with the second-line IV AED as close to the dose initiation of the second 2nd-line IV AED as possible, but before the initiation of the third-line IV anesthetic for burst suppression.
Ganaxolone for this study is a proprietary IV formulation solubilized by Captisol® (betadex sulfobutyl ether sodium). The maximum level of Captisol® will not exceed 50 g/per day. Ganaxolone for IV administration will be provided to the site as individual glass vials containing 3 mg/mL of ganaxolone for the open-label group and 5 mg/mL of ganaxolone for the double-blind group. Placebo for double-blind group IV administration will be provided to the site as blinded matching vials containing 0.9% sodium chloride solution.
Total adjunctive GNX therapy infusion treatment is planned to be 3 or 5 days (including an 18-hour taper). All subjects will have a 3-minute bolus dose with a continuous infusion at the rate from about 10 mg/hour to about 85 mg/hour or from about 18 mg/hr to 80 mg/hr, and an 18-hour taper. Once study drug administration is started it will be delivered for a full 2 or 4 days (48 or 96 hours) prior to tapering. At the end of second day administration, the decision to administer the study drug for an additional 2 days (i.e., for a total of 4 days) will be made. If in the investigator's medical judgment the subject will continue benefitting from study drug administration, ganaxolone will be administered to the additional 2 days.
(§1) As of 22 Mar. 2019, 5 subjects were enrolled into the Study 1042-SE-2001 open-label group under the original protocol that limits daily Captisol exposure at 35 g/day. […] The initial EEG pattern post-infusion initiation was described by study physicians as a “light” burst suppression that was maintained for several hours in all subjects. […] It was observed that when GNX exposure was lowered (20 mg/hr for 2 hours and ending with 10 mg/hr for the remaining 18 hours on Day 1) in order not to exceed this limit, seizure control could not be maintained and seizure activity (but not SE) re-occurred as evidenced by EEG changes. […] Seizure activity relapsed when plasma concentrations of GNX decreased <500 ng/mL in 4 out of 5 subjects.

[1] = Phase 2 open-label dose range study, safety
From the text: Secondary objectives included assessment of adverse events and evaluation of the pharmacokinetics of IV ganaxolone in patients with SE.

[2] = Toxicology studies in animals on prenatal and neonatal development; type: in vivo
From the text: Ganaxolone has been administered to infants with severe forms of epilepsy as early as 4 months of age. In clinical trials involving administration of ganaxolone over several weeks, the study drug has been tapered off over a 1 to 2-week period.

[3] = Phase 2 Study 1042-SE-2001 open-label group, GNX plasma concentration and PK modeling; type: in vivo, human
Experimental: These infusion dosing parameters are expected to result in daily doses of ganaxolone of about ≤714 mg/day and Captisol of about ≤50 grams/day. Based on PK modeling, it is predicted that maximum concentrations of ganaxolone should remain within 1,000 ng/mL during infusion, but some variability is expected due to, for example, differences in subjects' weight.
as §1

[4] = PK modeling data from 5 subjects

CC(=O)[C@H]1CC[C@H]2[C@@H]3CC[C@H]4C[C@](C)(O)CC[C@]4(C)[C@H]3CC[C@]12C [Ganaxolone, 3α-hydroxy-3β-methyl-5α-pregnan-20-one]
duration seizure protection was maintained (subjects with SE; 1 subject, amended protocol): 48 h | time to RSE cessation after starting IV GNX infusion (subjects with SE; 1 subject, amended protocol, Captisol 50 g/day, NCSE due to tumor): ≤ 3 min | seizure relapse on weaning off GNX (subjects with SE; 1 subject, amended protocol, listed as GNX): no seizure relapse; also recorded: without seizure relapse | EEG response after start of GNX (subjects with SE; Subject 004-101, 30 mg bolus, 85 mg/hr): Almost immediately the EEG showed seizure suppression | time of seizure relapse post infusion start (subjects with SE; Subject 004-101, at 20 mg/hr): approximately 5 hours | time at which additional intervention was required post-dose initiation (subjects with SE; Subject 004-102): approximately 42.5 hours | seizure activity on EEG (subjects with SE; Subject 004-102, 60 minutes and 2 hours post-dose initiation): no seizure activity | time of return of concerning EEG pattern post-dose initiation (subjects with SE; Subject 004-102, at 20 mg/hr): 5 to 6 h | time to SE abort after bolus administration (subjects with SE; Subject 006-101): ≤ 1 min | seizure activity on EEG (subjects with SE; Subject 006-101, 60 minutes and 2 hours post-dose initiation): no seizure activity | time of seizure relapse post infusion start (subjects with SE; Subject 006-101, at 20 mg/hr): approximately 6 hours | effect of bolus on SE (subjects with SE; Subject 006-102): SE aborted upon administration of the bolus | seizure activity on EEG (subjects with SE; Subject 006-102, 60 minutes, 2 hours and 4 hours post-dose initiation): no seizure activity | time of seizure relapse post infusion start (subjects with SE; Subject 006-102, at 20 mg/hr): approximately 6 hours | seizure return during treatment (subjects with SE; Subject 015-101, focal convulsive SE): Seizures did not return during the treatment period | effect of initial bolus plus continuous infusion on seizures/SE (EEG) (subjects with SE; all 5 subjects, 30 mg bolus, 85 mg/hr 2 h then 40 mg/hr 2 h, listed as GNX): immediate cessation of seizures; also recorded: immediate cessation of SE | subjects with seizure activity relapse when plasma GNX decreased <500 ng/mL (subjects with SE; original protocol, Captisol 35 g/day): 4 out of 5 | tolerability of GNX infusion ([1]; 17 RSE patients): generally well-tolerated | participants with SAEs (severe sedation) assessed as related to GNX, leading to early discontinuation ([1]; concomitant CNS depressant medications): 2 participants | toxicities in prenatal and neonatal development studies [2]: have not demonstrated toxicities | GNX exposure associated with seizure relapse [3, 4]: < 500 ng/mL | GNX exposure level associated with rapid and complete SE suppression [3, 4]: approximately 1000 ng/mL | GNX plasma concentration at the time of seizure relapse ([3]; Subject 004-101): < 500 ng/mL | GNX plasma concentration at the time of seizure relapse ([3]; Subject 006-101): < 500 ng/mL | GNX plasma concentration at the time of seizure relapse ([3]; Subject 006-102): < 500 ng/mL
